The source of these data is US20260184675A1, “CHIRAL ISOMERIC SULFITE COMPOUND AND APPLICATION THEREOF” (Chengdu Hanova BioSciences Co., Ltd, priority 2024, published 2026).

Molecules are shown by their SMILES.

In the experiment the test system is eggs of Tetranychus cinnabarinus. The experiment in a line: Control efficacy on eggs of Tetranychus cinnabarinus of compounds compounded with ginger rhizome / Kaempferia galanga L rhizome mixture (Bliss joint action). As to conditions: for joint effect on controlling of eggs of Tetranychus cinnabarinus (in words): compounded with a mixture of ginger rhizome and Kaempferia galanga L rhizome (7:3); for Control efficacy for eggs of Tetranychus cinnabarinus on day 5 (%): single agent. It counts as in vivo. How it is done:
The ginger rhizome extract and volatile oil of Kaempferia galanga L rhizome were used to prepare a mixture of ginger rhizome and Kaempferia galanga L rhizome at a compounding ratio of 7:3, which was then compounded with compound 1, compound 10 and compound 19, and a leaf-disc method was used to evaluate the control efficacy on eggs of Tetranychus cinnabarinus based on the Experimental method in Example 1.
The ginger rhizome extract was prepared by extracting the ginger rhizome using a mixed solvent of ethyl acetate and ethanol at a ratio of 1:4.
According to the concept of independent joint action proposed by Bliss, the theoretical mortality rate P when the pesticides and acaricides are used in mixture can be calculated using the following equation: […]
Pm is the mortality rate (%) of the target when the first active component is used at a concentration of m; and Pn is the mortality rate (%) of the target when the second active component is used at a concentration of n.

Regarding `CC(COS(=O)OCCF)Oc1ccc(Cl)cc1Cl` (stereo not drawn) [Compound 1], the “joint effect on controlling of eggs of Tetranychus cinnabarinus (in words)” value (from here on “joint effect on controlling”) is recorded as “synergistic effect”. For the setting “0.1 mg/L”, the “Control efficacy for eggs of Tetranychus cinnabarinus on day 5 (%)” value (from here on “Control efficacy for eggs … (%)”) is 17.12%. Further, the “Control efficacy for eggs … (%)” value (0.2 mg/L) stood at 33.58%. Further, for the setting “0.3 mg/L”, the “Control efficacy for eggs … (%)” value came out at 52.19%.

In the case of `CC(C)(COc1ccc(Cl)cc1Cl)OS(=O)OCCF` (stereo not drawn) [Compound 10], the “joint effect on controlling” value was “synergistic effect”. Also, the “Control efficacy for eggs … (%)” value (0.1 mg/L) amounted to 11.45%. Moreover, the “Control efficacy for eggs … (%)” value (0.2 mg/L) turned out to be 20.79%. The “Control efficacy for eggs … (%)” value (0.5 mg/L) was determined as 68.12%.

Take `CCC(COc1ccc(Cl)cc1Cl)OS(=O)OCCF` (stereo not drawn) [Compound 19]: the “joint effect on controlling” value is recorded as “synergistic effect”. Also, the “Control efficacy for eggs … (%)” value (0.1 mg/L) is 20.57%. Also, the “Control efficacy for eggs … (%)” value (0.2 mg/L) turned out to be 36.14%. The “Control efficacy for eggs … (%)” value (0.25 mg/L) is 48.73%.
